Experimental data published in patent publication US5527781A, “4-O-(aminoglycosyl)- or 4,6-di-O-(aminoglycosyl)-2,5-dideoxy-5,5-difluorostreptamine derivatives” (Zaidan Hojin Biseibutsu Kagaku Kenkyu Kai, priority 1990, dated 1996).
Values after ≈ are worked out from the molar mass of the structure shown. Where two headings read alike, the source gives them in different places.

Experiments:
in vivo = details: mouse, iv
From the text: Further, in order to estimate acute toxicity of the compound of the general formula (I) according to this invention, some examples of the compounds of this invention were independently dissolved in water to prepare aqueous solutions (as adjusted to pH 7 by addition of hydrochloric acid). […] The tested compounds of this invention are expressed by the same abbreviations as in Table 1. […] The comparative compounds as tested are also expressed by the same abbreviations as in Table 1.

Proteus rettgeri GN 311 = test: MIC, standard serial dilution method; assay type: cell-based; details: Providencia rettgeri, GN311; Proteus rettgeri GN 311; Mueller-Hinton agar, 37° C; read-out: MIC
[1] = test system: Escherichia coli K-12 ML 1629; test: microbe, parasite or virus in culture; assay type: cell-based; details: K12ML1629
Bacillus subtilis PCI219 = test: MIC, standard serial dilution method; assay type: cell-based; details: Mueller-Hinton agar, 37° C
Escherichia coli K-12 R5 = test: microbe, parasite or virus in culture; assay type: cell-based; details: K12R5; Escherichia coli K-12 R5; resistance mechanism AAC(6'); Mueller-Hinton agar, 37° C
[2] = test system: Pseudomonas aeruginosa GN 315; test: MIC, standard serial dilution method; assay type: cell-based; details: GN315
[3] = test system: Staphylococcus aureus Ap01; test: MIC, standard serial dilution method; assay type: cell-based; details: resistance mechanism ANT(4'), Mueller-Hinton agar, 37° C
Serratia marcescens = test: MIC, standard serial dilution method; assay type: cell-based; details: Mueller-Hinton agar, 37° C
[4] = test system: Corynebacterium bovis 1810; test: MIC, standard serial dilution method; assay type: cell-based; details: Mueller-Hinton agar, 37° C
[5] = test system: Klebsiella pneumoniae 22#3038; test: MIC, standard serial dilution method; assay type: cell-based; details: resistance mechanism APH(3')-II, ANT(2"), Mueller-Hinton agar, 37° C
Providencia sp. Pv 16 = test: MIC, standard serial dilution method; assay type: cell-based; details: SP.PV16, resistance mechanism AAC(2'), Mueller-Hinton agar, 37° C
[6] = test system: Escherichia coli K-12 LA 290 R55; test: microbe, parasite or virus in culture; assay type: cell-based; details: K12LA290R55; Escherichia coli K-12 LA 290 R55; resistance mechanism ANT(2"); Mueller-Hinton agar, 37° C
Escherichia coli K-12 = test: MIC, standard serial dilution method; assay type: cell-based; details: K12
Mycobacterium 607 = test: MIC, standard serial dilution method; assay type: cell-based; details: Mueller-Hinton agar, 37° C
Escherichia coli JR225 = test: microbe, parasite or virus in culture; assay type: cell-based; details: resistance mechanism AAC(3), Mueller-Hinton agar, 37° C
[7] = test system: Pseudomonas aeruginosa A3; test: MIC, standard serial dilution method; assay type: cell-based; details: Mueller-Hinton agar, 37° C
[8] = test system: Staphylococcus aureus 209P; test: MIC, standard serial dilution method; assay type: cell-based; details: Mueller-Hinton agar, 37° C
[9] = Escherichia coli K-12 ML 1629, resistance mechanism APH(3')-I, Mueller-Hinton agar, 37° C, read-out: MIC
[10] = Pseudomonas aeruginosa GN 315, resistance mechanism AAC(6'), Mueller-Hinton agar, 37° C, read-out: MIC
[11] = Escherichia coli K-12, Mueller-Hinton agar, 37° C, read-out: MIC

SMILES | MIC (Proteus rettgeri GN 311) | MIC [1, 9] | MIC (Bacillus subtilis PCI219) | MIC (Escherichia coli K-12 R5) | LD50 (in vivo; pH 7) | MIC [2, 10] | MIC [3] | MIC (Serratia marcescens) | MIC [4] | MIC [5] | MIC (Providencia sp. Pv 16) | MIC [6] | MIC (Escherichia coli K-12; [11]) | MIC (Mycobacterium 607) | MIC (Escherichia coli JR225) | MIC [7] | MIC [8] | also measured
NC[C@H]1O[C@H](O[C@H]2[C@H](F)[C@@H](O[C@H]3O[C@H](CO)[C@@H](O)[C@H](N)[C@H]3O)[C@H](N)C[C@@H]2N)[C@H](N)[C@@H](O)[C@@H]1O [5-deoxy-5-fluorokanamycin B, reference compound] |  |  |  |  |  |  |  |  |  |  |  |  |  |  |  |  |  | LD50 (in vivo): ~135 mg/kg
NCC[C@H](O)C(=O)N[C@@H]1C[C@H](N)[C@@H](O[C@H]2O[C@H](CN)[C@@H](O)[C@H](O)[C@H]2O)[C@H](O)[C@H]1O[C@H]1O[C@H](CO)[C@@H](O)[C@H](N)[C@H]1O [Amikacin, amikacin, reference compound] | 1.56 mg/L (≈ 2.66 µM) | 1.56 mg/L (≈ 2.66 µM) | 0.39 mg/L (≈ 0.666 µM) | 100 mg/L (≈ 171 µM) | > 300 mg/kg | 50 mg/L (≈ 85.4 µM) | > 100 mg/L | 3.12 mg/L (≈ 5.33 µM) | 1.56 mg/L (≈ 2.66 µM) | 3.12 mg/L (≈ 5.33 µM) | 1.56 mg/L (≈ 2.66 µM) | 1.56 mg/L (≈ 2.66 µM) |  |  |  |  |  | 
NC[C@@H]1CC[C@@H](N)[C@@H](O[C@H]2[C@H](F)[C@@H](O[C@H]3O[C@H](CO)[C@@H](O)[C@H](N)[C@H]3O)[C@H](N)C[C@@H]2N)O1 [Compound 5F-DKB, 5,3',4'-trideoxy-5-fluorokanamycin B, reference compound] |  | 3.12 mg/L (≈ 6.88 µM) |  |  | ~135 mg/kg |  | 3.12 mg/L (≈ 6.88 µM) |  | 6.25 mg/L (≈ 13.8 µM) | 6.25 mg/L (≈ 13.8 µM) |  |  | 3.12 mg/L (≈ 6.88 µM) | 6.25 mg/L (≈ 13.8 µM) |  |  |  | 
NCC[C@H](O)C(=O)N[C@@H]1C[C@H](N)[C@@H](O[C@H]2O[C@H](CN)CC[C@H]2N)[C@H](F)[C@H]1O[C@H]1O[C@H](CO)[C@@H](O)[C@H](N)[C@H]1O [Compound 5F-DKB-AHB, 1-N-[4-amino-2-(S)-hydroxybutyryl]-5,3',4'-trideoxy-5-fluorokanamycin B, reference compound] |  | 0.39 mg/L (≈ 0.703 µM) | < 0.2 mg/L | 12.5 mg/L (≈ 22.5 µM) |  |  | 1.56 mg/L (≈ 2.81 µM) | 3.12 mg/L (≈ 5.63 µM) |  | 0.78 mg/L (≈ 1.41 µM) | 0.39 mg/L (≈ 0.703 µM) | 0.39 mg/L (≈ 0.703 µM) | < 0.2 mg/L |  | < 0.2 mg/L |  |  | 
NC[C@H]1O[C@H](O[C@H]2[C@H](F)[C@@H](O[C@H]3O[C@H](CO)[C@@H](O)[C@H](N)[C@H]3O)[C@H](N)C[C@@H]2N)[C@H](N)C[C@@H]1O [Compound 5F-TOB, 5,3'-dideoxy-5-fluorokanamycin B, reference compound] |  |  | < 0.2 mg/L |  | ~180 mg/kg |  |  |  |  | 3.12 mg/L (≈ 6.65 µM) | 3.12 mg/L (≈ 6.65 µM) |  |  |  |  |  |  | 
NCC[C@H](O)C(=O)N[C@@H]1C[C@H](N)[C@@H](O[C@H]2O[C@H](CN)[C@@H](O)C[C@H]2N)[C@H](F)[C@H]1O[C@H]1O[C@H](CO)[C@@H](O)[C@H](N)[C@H]1O [Compound 5F-TOB-AHB, 1-N-[4-amino-2-(S)-hydroxybutyryl]-5,3'-dideoxy-5-fluorokanamycinB, reference compound] |  | 0.39 mg/L (≈ 0.683 µM) |  |  |  | 1.56 mg/L (≈ 2.73 µM) | 3.12 mg/L (≈ 5.47 µM) | 3.12 mg/L (≈ 5.47 µM) |  | 0.78 mg/L (≈ 1.37 µM) | 0.39 mg/L (≈ 0.683 µM) | 0.39 mg/L (≈ 0.683 µM) | < 0.2 mg/L | 0.39 mg/L (≈ 0.683 µM) | < 0.2 mg/L | < 0.2 mg/L |  | 
NC[C@H]1O[C@H](O[C@@H]2[C@@H](N)C[C@@H](N)[C@H](O[C@H]3O[C@H](CO)[C@@H](O)[C@H](N)[C@H]3O)C2(F)F)[C@H](O)[C@@H](O)[C@@H]1O [Compound 5FF-KMA, 5-deoxy-5,5-difluorokanamycin A] | 1.56 mg/L (≈ 3.09 µM) | > 100 mg/L | 0.78 mg/L (≈ 1.55 µM) | > 100 mg/L | > 300 mg/kg | > 100 mg/L | 50 mg/L (≈ 99.1 µM) | 12.5 mg/L (≈ 24.8 µM) | 12.5 mg/L (≈ 24.8 µM) |  | 12.5 mg/L (≈ 24.8 µM) | 12.5 mg/L (≈ 24.8 µM) |  | 3.12 mg/L (≈ 6.18 µM) | 1.56 mg/L (≈ 3.09 µM) | 6.25 mg/L (≈ 12.4 µM) | 3.12 mg/L (≈ 6.18 µM) | MIC (Escherichia coli K-12; Escherichia coli): 0.78 mg/L (≈ 1.55 µM)
NC[C@H]1O[C@H](O[C@@H]2[C@@H](N)C[C@@H](N)[C@H](O[C@H]3O[C@H](CO)[C@@H](O)[C@H](N)[C@H]3O)C2(F)F)[C@H](N)[C@@H](O)[C@@H]1O [Compound 5FF-KMB, 5-deoxy-5,5-difluorokanamycin B] | 0.39 mg/L (≈ 0.775 µM) | > 100 mg/L | 0.39 mg/L (≈ 0.775 µM) | 100 mg/L (≈ 199 µM) |  | > 100 mg/L | 50 mg/L (≈ 99.3 µM) | 6.25 mg/L (≈ 12.4 µM) | 1.56 mg/L (≈ 3.1 µM) |  | 12.5 mg/L (≈ 24.8 µM) | 3.12 mg/L (≈ 6.2 µM) | 0.39 mg/L (≈ 0.775 µM) | 1.56 mg/L (≈ 3.1 µM) | 3.12 mg/L (≈ 6.2 µM) | 3.12 mg/L (≈ 6.2 µM) | 0.78 mg/L (≈ 1.55 µM) | 
NC[C@@H]1CC[C@@H](N)[C@@H](O[C@H]2[C@H](O)[C@@H](O[C@H]3O[C@H](CO)[C@@H](O)[C@H](N)[C@H]3O)[C@H](N)C[C@@H]2N)O1 [DKB, 3',4'-dideoxy-kanamycin B, reference compound] | < 0.2 mg/L |  | < 0.2 mg/L |  |  |  |  |  |  | 50 mg/L (≈ 111 µM) |  |  | 0.39 mg/L (≈ 0.864 µM) |  |  |  |  | MIC ([2]; Pseudomonas aeruginosa): 100 mg/L (≈ 221 µM)
NCC[C@H](O)C(=O)N[C@@H]1C[C@H](N)[C@@H](O[C@H]2O[C@H](CN)CC[C@H]2N)[C@H](O)[C@H]1O[C@H]1O[C@H](CO)[C@@H](O)[C@H](N)[C@H]1O [HBK, 1-N-[4-amino-(S)-2-hydroxybutyryl]-3',4'-dideoxykanamycin B, reference compound] |  |  |  |  | 70 mg/kg |  |  |  |  |  |  |  |  |  |  |  |  | 
NC[C@H]1O[C@H](O[C@H]2[C@H](O)[C@@H](O[C@H]3O[C@H](CO)[C@@H](O)[C@H](N)[C@H]3O)[C@H](N)C[C@@H]2N)[C@H](N)[C@@H](O)[C@@H]1O [KMB, kanamycin B, reference compound] | 0.2 mg/L (≈ 0.414 µM) | > 100 mg/L | < 0.2 mg/L |  |  |  |  |  |  | > 100 mg/L | 12.5 mg/L (≈ 25.9 µM) |  | 0.39 mg/L (≈ 0.807 µM) |  |  | 1.56 mg/L (≈ 3.23 µM) | 0.39 mg/L (≈ 0.807 µM) | 
NC[C@H]1O[C@H](O[C@H]2[C@H](O)[C@@H](O[C@H]3O[C@H](CO)[C@@H](O)[C@H](N)[C@H]3O)[C@H](N)C[C@@H]2N)[C@H](N)C[C@@H]1O [TOB, 3'-deoxykanamycin B, reference compound] | 0.39 mg/L (≈ 0.834 µM) |  | < 0.2 mg/L | 25 mg/L (≈ 53.5 µM) | ~80 mg/kg | 25 mg/L (≈ 53.5 µM) | 12.5 mg/L (≈ 26.7 µM) | 3.12 mg/L (≈ 6.67 µM) | 1.56 mg/L (≈ 3.34 µM) | 12.5 mg/L (≈ 26.7 µM) | 6.25 mg/L (≈ 13.4 µM) | 12.5 mg/L (≈ 26.7 µM) | 0.39 mg/L (≈ 0.834 µM) | 0.39 mg/L (≈ 0.834 µM) |  |  | < 0.2 mg/L | MIC ([1]; Escherichia coli): 0.78 mg/L (≈ 1.67 µM)
